Experimental data published in patent publication US8987314B2, “Amide, urea or sulfone amide linked benzothiazole inhibitors of endothelial lipase” (Bristol-Myers Squibb Company, priority 2012, dated 2015).
pIC50: −log10 of the molar value. Where two headings read alike, the source gives them in different places.

Legend:
[1] = biological target: Endothelial lipase (EL) (Homo sapiens (Human), UniProt Q9Y5X9); assay: EL assay: endothelial lipase activity with fluorescent substrate A10070 in DMPG vesicles; type: biochemical
Chain of Endothelial lipase (EL) (Q9Y5X9 21-500): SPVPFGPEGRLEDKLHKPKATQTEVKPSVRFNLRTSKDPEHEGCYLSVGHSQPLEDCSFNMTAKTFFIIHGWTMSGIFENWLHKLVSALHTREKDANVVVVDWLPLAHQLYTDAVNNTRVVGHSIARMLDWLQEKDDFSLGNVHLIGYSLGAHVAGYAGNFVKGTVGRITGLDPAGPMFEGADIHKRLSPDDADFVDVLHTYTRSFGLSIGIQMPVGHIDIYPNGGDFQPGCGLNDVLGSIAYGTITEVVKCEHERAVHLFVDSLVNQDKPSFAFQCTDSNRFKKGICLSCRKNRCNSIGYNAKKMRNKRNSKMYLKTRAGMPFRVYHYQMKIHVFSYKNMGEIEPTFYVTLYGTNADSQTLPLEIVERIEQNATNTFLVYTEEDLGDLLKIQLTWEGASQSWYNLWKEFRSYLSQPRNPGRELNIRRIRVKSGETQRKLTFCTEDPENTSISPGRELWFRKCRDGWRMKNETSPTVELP
How it was run: (§1)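 Vesicles prepared: A10070 dried with DMPG, resuspended in HEPES pH 8.0/NaCl/EDTA, sonicated on ice. Enzyme incubated with compound 30 min at 37° C. Reaction started with 1:10 diluted vesicles. Fluorescence (490/530 nm) followed 60 min; slope from 300–900 secs gives rate.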

[2] = biological target: hepatic lipase (HL) (Homo sapiens (Human), UniProt P11150); assay: HL assay: hepatic lipase activity with fluorescent substrate A10070 in DMPG vesicles; type: biochemical
Chain of hepatic lipase (HL) (P11150 23-499, species assumed): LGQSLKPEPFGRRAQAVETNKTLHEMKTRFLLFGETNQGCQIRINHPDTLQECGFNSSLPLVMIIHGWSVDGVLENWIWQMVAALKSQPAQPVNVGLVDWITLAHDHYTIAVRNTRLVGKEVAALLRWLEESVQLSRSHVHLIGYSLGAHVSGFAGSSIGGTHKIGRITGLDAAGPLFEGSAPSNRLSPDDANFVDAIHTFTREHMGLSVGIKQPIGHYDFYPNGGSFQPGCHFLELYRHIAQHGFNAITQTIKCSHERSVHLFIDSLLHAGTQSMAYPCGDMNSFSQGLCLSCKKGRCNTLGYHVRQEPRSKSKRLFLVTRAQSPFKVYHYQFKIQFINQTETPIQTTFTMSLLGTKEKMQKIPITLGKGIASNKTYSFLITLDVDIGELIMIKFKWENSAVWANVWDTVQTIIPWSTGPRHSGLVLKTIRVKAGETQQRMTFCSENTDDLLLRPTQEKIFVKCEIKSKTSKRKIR
How it was run: as §1

[3] = EL from conditioned media of HT-1080 cells, 30 min incubation with compound at 37° C., A10070/DMPG vesicles
[4] = HL partially purified from conditioned media of COS cells, 30 min incubation with compound at 37° C., A10070/DMPG vesicles

Compound | pIC50 [1] | pIC50 [2] | pIC50 [1, 3] | pIC50 [2, 4]
Cc1nnc(CNC(=O)C(c2nc3cc(F)c(-c4ccccc4)cc3s2)S(=O)(=O)Cc2ccccc2)o1 (stereo not drawn) [Example B153, 2-(benzylsulfonyl)-2-(5-fluoro-6-phenyl-1,3-benzothiazol-2-yl)-N-((5-methyl-1,3,4-oxadiazol-2-yl)methyl)acetamide] | > 8.00 | 7.41 |  | 
Cc1nnc(CNC(=O)C(c2nc3cc(F)c(-c4ccccc4)cc3s2)S(C)(=O)=O)o1 (stereo not drawn) [Example B154, 2-(5-fluoro-6-phenyl-1,3-benzothiazol-2-yl)-N-[(5-methyl-1,3,4-oxadiazol-2-yl)methyl]-2-(methylsulfonyl)acetamide] | > 8.00 | 7.96 |  | 
COCCS(=O)(=O)C(C(=O)NCc1nnc(C)o1)c1nc2cc(F)c(-c3ccccc3)cc2s1 (stereo not drawn) [Example B155, 2-(5-fluoro-6-phenyl-1,3-benzothiazol-2-yl)-2-[(2-methoxyethyl)sulfonyl]-N-[(5-methyl-1,3,4-oxadiazol-2-yl)methyl]acetamide] | > 8.00 | > 8.00 |  | 
CC(C)(C)OC(=O)c1ccc(-c2ccc3nc(C(C(=O)NCCS(N)(=O)=O)S(C)(=O)=O)sc3c2)cc1 (stereo not drawn) [Example B156, tert-butyl 4-(2-(1-(methylsulfonyl)-2-oxo-2-(2-sulfamoylethylamino)eth-yl)benzo[d]thiazol-6-yl)benzoate] | > 8.00 | > 8.00 |  | 
NS(=O)(=O)CCNC(=O)C(c1nc2ccc(-c3ccc(C(=O)N4CCOCC4)cc3)cc2s1)S(=O)(=O)CCN1CCOCC1 (stereo not drawn) [Example B157, 2-{6-[4-(4-Morpholinylcarbonyl)phenyl]-1,3-benzothiazol-2-yl}-2-{[2-(4-morpholinyl)ethyl]sulfonyl}-N-(2-sulfamoylethyl)acetamide] |  |  | > 8.00 | 6.83
NS(=O)(=O)CCNC(=O)C(c1nc2ccc(-c3ccc(C(=O)N4CCOCC4)cc3)cc2s1)S(=O)(=O)CCNC(=O)OCc1ccccc1 (stereo not drawn) [Example B158, benzyl (2-((1-(6-(4-(4-morpholinylcarbonyl)phen-yl)-1,3-benzothiazol-2-yl)-2-oxo-2-((2-sulfamoyl-ethyl)amino)ethyl)sul-fonyl)ethyl)carbamate] | > 8.00 | 7.51 |  | 
NCCS(=O)(=O)C(C(=O)NCCS(N)(=O)=O)c1nc2ccc(-c3ccc(C(=O)N4CCOCC4)cc3)cc2s1 (stereo not drawn) [Example B159] | > 8.00 | 7.66 |  | 
NS(=O)(=O)CCNC(=O)C(c1nc2cc(F)c(-c3ccccc3)cc2s1)S(=O)(=O)CCN1CCOCC1 (stereo not drawn) [Example B160, 2-(5-fluoro-6-phenyl-1,3-benzothiazol-2-yl)-2-((2-(4-morpholinyl)ethyl)sul-fonyl)-N-(2-sulfamoylethyl)acetamide] | > 8.00 | 7.70 |  | 
NCCS(=O)(=O)C(C(=O)NCCS(N)(=O)=O)c1nc2ccc(-c3ccccc3)cc2s1 (stereo not drawn) [Example B161, 2-((2-aminoethyl)sulfonyl)-2-(6-phenyl-1,3-benzothiazol-2-yl)-N-(2-sulfamoylethyl)acetamide] | > 8.00 | 7.66 |  | 
COCCn1cc(-c2ccc3nc(C(C(=O)NCCS(N)(=O)=O)S(C)(=O)=O)sc3c2)cn1 (stereo not drawn) [Example B162, 2-(6-(1-(2-Methoxyethyl)-1H-pyrazol-4-yl)-1,3-benzothiazol-2-yl)-2-(methylsulfonyl)-N-(2-sulfamoylethyl)acetamide] |  |  | > 8.00 | 6.00
COCCn1cc(-c2ccc3nc(C(C(=O)NCCS(N)(=O)=O)S(=O)(=O)Cc4ccc(F)cc4)sc3c2)cn1 (stereo not drawn) [Example B163, 2-((4-fluorobenzyl)sul-fonyl)-2-(6-(1-(2-methoxyethyl)-1H-pyrazol-4-yl)-1,3-benzothiazol-2-yl)-N-(2-sulfamoylethyl)a-cetamide] | 7.55 | 5.59 |  | 
COCCn1cc(-c2ccc3nc(C(C(=O)NCCS(N)(=O)=O)S(=O)(=O)CC4CC4)sc3c2)cn1 (stereo not drawn) [Example B165, 2-((cyclopropylmethyl)sul-fonyl)-2-(6-(1-(2-methoxyethyl)-1H-pyrazol-4-yl)-1,3-benzothiazol-2-yl)-N-(2-sulfamoylethyl)a-cetamide] | 7.43 | 6.50 |  | 
CS(=O)(=O)C(C(=O)NCCS(N)(=O)=O)c1nc2ccc(-c3ccc(C(=O)N4CC(F)(F)C4)cc3)cc2s1 (stereo not drawn) [Example B166, 2-(6-(4-(3,3-Difluoroazetidine-1-carbonyl)phenyl)benzo[d]thiazol-2-yl)-2-(methylsulfonyl)-N-(2-sulfamoylethyl)acetamide] |  |  | > 8.00 | 7.89
COCCS(=O)(=O)C(C(=O)NCCS(N)(=O)=O)c1nc2ccc(-c3ccc(C(=O)N4CC(F)(F)C4)cc3)cc2s1 (stereo not drawn) [Example B167, 2-(6-(4-((3,3-difluoro-1-azetidinyl)carbonyl)phen-yl)-1,3-benzothiazol-2-yl)-2-((2-methoxyethyl)sul-fonyl)-N-(2-sulfamoylethyl)acetamide] | > 8.00 | 7.10 |  | 
COCCS(=O)(=O)C(C(=O)NCCS(N)(=O)=O)c1nc2ccc(-c3ccc(C(=O)N4CCC(F)(F)C4)cc3)cc2s1 (stereo not drawn) [Example B168, 2-(6-(4-((3,3-difluoro-1-pyrrolidinyl)carbonyl)phen-yl)-1,3-benzothiazol-2-yl)-2-((2-methoxyethyl)sul-fonyl)-N-(2-sulfamoyl-ethyl)acetamide] | > 8.00 | 7.22 |  | 
CS(=O)(=O)C(C(=O)NCCS(N)(=O)=O)c1nc2ccc(-c3ccc(C(=O)N4CCC(F)(F)C4)cc3)cc2s1 (stereo not drawn) [Example B169, 2-(6-(4-((3,3-difluoro-1-pyrrolidinyl)carbonyl)phen-yl)-1,3-benzothiazol-2-yl)-2-(methylsulfonyl)-N-(2-sulfamoylethyl)a-cetamide] | > 8.00 | 7.04 |  | 
NS(=O)(=O)CCNC(=O)C(c1nc2ccc(-c3ccc(C(=O)N4CCC(F)(F)C4)cc3)cc2s1)S(=O)(=O)CCC(F)(F)F (stereo not drawn) [Example B170, 2-(6-(4-((3,3-difluoro-1-pyrrolidinyl)carbonyl)phen-yl)-1,3-benzothiazol-2-yl)-N-(2-sulfamoylethyl)-2-((3,3,3-trifluoropropyl)sul-fonyl)acetamide] | > 8.00 | 7.49 |  | 
CS(=O)(=O)C(C(=O)NCCS(N)(=O)=O)c1nc2ccc(-c3ccc(C(=O)N4CCC(F)(F)CC4)cc3)cc2s1 (stereo not drawn) [Example B171, 2-(6-(4-((4,4-difluoro-1-piperidinyl)carbonyl)phen-yl)-1,3-benzothiazol-2-yl)-2-(methylsulfonyl)-N-(2-sulfamoylethyl)a-cetamide] | > 8.00 | 7.72 |  | 

Second part, the compound after the results:

pIC50 [1] | pIC50 [2] | pIC50 [1, 3] | pIC50 [2, 4] | Compound
> 8.00 | 7.48 |  |  | COc1cc(-c2ccc3nc(C(C(=O)NCCS(N)(=O)=O)S(=O)(=O)CCC(F)(F)F)sc3c2)ccn1 (stereo not drawn) [Example B144, 2-(6-(2-methoxy-4-pyridinyl)-1,3-benzothiazol-2-yl)-N-(2-sulfamoylethyl)-2-((3,3,3-trifluoropropyl)sulfonyl)a-cetamide]
> 8.00 | 6.44 |  |  | Cn1ccc(-c2ccc3nc(C(C(=O)NCCS(N)(=O)=O)S(=O)(=O)CCC(F)(F)F)sc3c2)cc1=O (stereo not drawn) [Example B145, 2-(6-(1-methyl-2-oxo-1,2-dihydro-4-pyridinyl)-1,3-benzothiazol-2-yl)-N-(2-sulfamoylethyl)-2-((3,3,3-trifluoropropyl)sulfonyl)a-cetamide]
> 8.00 | 6.04 |  |  | CS(=O)(=O)C(C(=O)NCCS(N)(=O)=O)c1nc2ccc(-c3cncnc3)cc2s1 (stereo not drawn) [Example B146, 2-(methylsulfonyl)-2-(6-(5-pyrimidinyl)-1,3-benzothiazol-2-yl)-N-(2-sulfamoylethyl)acetamide]
> 8.00 | > 8.00 |  |  | COc1cc(-c2ccc3nc(C(C(=O)NCCS(N)(=O)=O)S(C)(=O)=O)sc3c2)ccn1 (stereo not drawn) [Example B147, 2-(6-(2-methoxy-4-pyridinyl)-1,3-benzothiazol-2-yl)-2-(methylsulfonyl)-N-(2-sulfamoylethyl)acetamide]
> 8.00 | 7.89 |  |  | COCCS(=O)(=O)C(C(=O)NCCS(N)(=O)=O)c1nc2ccc(-c3ccnc(OC)c3)cc2s1 (stereo not drawn) [Example B148, 2-((2-methoxyethyl)sul-fonyl)-2-(6-(2-methoxy-4-pyridinyl)-1,3-benzothiazol-2-yl)-N-(2-sulfamoylethyl)acetamide]
> 8.00 | 7.19 |  |  | COc1nccc(-c2ccc3nc(C(C(=O)NCCS(N)(=O)=O)S(C)(=O)=O)sc3c2)c1F (stereo not drawn) [Example B149, 2-(6-(3-fluoro-2-methoxy-4-pyridinyl)-1,3-benzothiazol-2-yl)-2-(methylsulfonyl)-N-(2-sulfamoylethyl)acetamide]
> 8.00 | 7.08 |  |  | Cc1nnc(CNC(=O)C(c2nc3cc(F)c(-c4ccccc4)cc3s2)S(=O)(=O)CCC(F)(F)F)o1 (stereo not drawn) [Example B150, 2-(5-Fluoro-6-phenyl-1,3-benzothiazol-2-yl)-N-((5-methyl-1,3,4-oxadiazol-2-yl)methyl)-2-((3,3,3-trifluoropropyl)sulfonyl)a-cetamide]
> 8.00 | 7.33 |  |  | CCS(=O)(=O)C(C(=O)NCc1nnc(C)o1)c1nc2cc(F)c(-c3ccccc3)cc2s1 (stereo not drawn) [Example B151, 2-(ethylsulfonyl)-2-(5-fluoro-6-phenyl-1,3-benzothiazol-2-yl)-N-((5-methyl-1,3,4-oxadiazol-2-yl)methyl)acetamide]
> 8.00 | 7.41 |  |  | Cc1nnc(CNC(=O)C(c2nc3cc(F)c(-c4ccccc4)cc3s2)S(=O)(=O)CC(C)C)o1 (stereo not drawn) [Example B152, 2-(5-fluoro-6-phenyl-1,3-benzothiazol-2-yl)-2-(isobutylsulfonyl)-N-((5-methyl-1,3,4-oxadiazol-2-yl)methyl)acetamide]
